Source: ChEMBL document CHEMBL2010763, “Discovery of a new binding mode for a series of liver X receptor agonists” (Bioorg Med Chem Lett, 2012)
Activity calls are given as the source filed them. The calls are words filed in the database; no cut-off is given here.

target: T1, Oxysterols receptor LXR-alpha (Homo sapiens) (UniProt Q13133); experiment: (§1) Displacement of [3H]N-(4-(1,1,1,3,3,3-hexafluoro-2-hydroxypropan-2-yl)phenyl)-N-methylbenzenesulfonamide from LXRalpa by scintillation proximity assay
T1 sequence (whole entry): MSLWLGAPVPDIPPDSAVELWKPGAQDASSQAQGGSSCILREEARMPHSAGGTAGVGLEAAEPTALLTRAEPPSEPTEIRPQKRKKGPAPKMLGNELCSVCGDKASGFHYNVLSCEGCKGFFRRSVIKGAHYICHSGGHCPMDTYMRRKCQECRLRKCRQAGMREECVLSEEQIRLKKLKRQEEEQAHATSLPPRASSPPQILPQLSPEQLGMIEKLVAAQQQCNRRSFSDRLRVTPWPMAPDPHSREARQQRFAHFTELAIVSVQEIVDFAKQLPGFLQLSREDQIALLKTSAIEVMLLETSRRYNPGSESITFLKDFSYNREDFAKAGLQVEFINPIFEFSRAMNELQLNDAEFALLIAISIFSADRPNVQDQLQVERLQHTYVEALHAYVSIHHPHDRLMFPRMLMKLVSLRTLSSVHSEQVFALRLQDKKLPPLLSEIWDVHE

inhibition | Structure (SMILES)
inactive | CCCC(c1ccc(N(C)S(=O)(=O)c2ccccc2)cc1)c1cccn1CCOC (centres undefined)
inactive | CCC(O)(c1ccc(N(C)S(=O)(=O)c2ccccc2)cc1)c1cccn1CCOC (centres undefined)
inactive | CCCCn1cccc1C(O)(c1ccc(N(C)S(=O)(=O)c2ccccc2)cc1)C(F)(F)F (centres undefined)
inactive | CCCn1cccc1C(O)(c1ccc(N(C)S(=O)(=O)c2ccccc2)cc1)C(F)(F)F (centres undefined)
inactive | CCn1cccc1C(O)(c1ccc(N(C)S(=O)(=O)c2ccccc2)cc1)C(F)(F)F (centres undefined)
inactive | CN(c1ccc(C(O)(c2ccc[nH]2)C(F)(F)F)cc1)S(=O)(=O)c1ccccc1 (centres undefined)
inactive | COCCn1cccc1C(=O)c1ccc(N(C)S(=O)(=O)c2ccccc2)cc1
inactive | CCC(c1ccc(N(C)S(=O)(=O)c2ccccc2)cc1)c1cccn1CCOC (centres undefined)
inactive | COCCn1cccc1C(O)c1ccc(N(C)S(=O)(=O)c2ccccc2)cc1 (centres undefined)
inactive | COCCn1cccc1Cc1ccc(N(C)S(=O)(=O)c2ccccc2)cc1
inactive | COCCn1cccc1C(CO)c1ccc(N(C)S(=O)(=O)c2ccccc2)cc1 (centres undefined)
inactive | COCCn1cccc1C(C)(O)c1ccc(N(C)S(=O)(=O)c2ccccc2)cc1 (centres undefined)
inactive | CCC(C)n1cccc1C(O)(c1ccc(N(C)S(=O)(=O)c2ccccc2)cc1)C(F)(F)F (centres undefined)
inactive | CCCCCCn1cccc1C(O)(c1ccc(N(C)S(=O)(=O)c2ccccc2)cc1)C(F)(F)F (centres undefined)
inactive | CCCC(O)(c1ccc(N(C)S(=O)(=O)c2ccccc2)cc1)c1cccn1CCOC (centres undefined)
inactive | CCOC(c1ccc(N(C)S(=O)(=O)c2ccccc2)cc1)c1cccn1CCOC (centres undefined)
inactive | COCCn1cccc1C(OC)c1ccc(N(C)S(=O)(=O)c2ccccc2)cc1 (centres undefined)
inactive | CN(c1ccc(C(O)(c2cccn2C)C(F)(F)F)cc1)S(=O)(=O)c1ccccc1 (centres undefined)
inactive | COCCn1cccc1C(C)c1ccc(N(C)S(=O)(=O)c2ccccc2)cc1 (centres undefined)
inactive | CN(c1ccc(C(O)(c2cccn2CCO)C(F)(F)F)cc1)S(=O)(=O)c1ccccc1 (centres undefined)
inactive | CN(c1ccc(C(O)(c2cccn2CCCO)C(F)(F)F)cc1)S(=O)(=O)c1ccccc1 (centres undefined)

target: T2, Oxysterols receptor LXR-alpha (Homo sapiens, UniProt Q13133); experiment: as §1
T2 sequence (Q13133 whole entry): T1 sequence (whole entry)

IC50 [µM] | Structure (SMILES)
> 10 | COC(c1ccc(N(C)S(=O)(=O)c2ccccc2)cc1)(c1cccn1Cc1ccccc1)C(F)(F)F (racemic)

target: Oxysterols receptor LXR-beta (Homo sapiens, UniProt P55055); experiment: Displacement of [3H]N-(4-(1,1,1,3,3,3-hexafluoro-2-hydroxypropan-2-yl)phenyl)-N-methylbenzenesulfonamide from LXRbeta by scintillation proximity assay
Sequence (P55055 whole entry): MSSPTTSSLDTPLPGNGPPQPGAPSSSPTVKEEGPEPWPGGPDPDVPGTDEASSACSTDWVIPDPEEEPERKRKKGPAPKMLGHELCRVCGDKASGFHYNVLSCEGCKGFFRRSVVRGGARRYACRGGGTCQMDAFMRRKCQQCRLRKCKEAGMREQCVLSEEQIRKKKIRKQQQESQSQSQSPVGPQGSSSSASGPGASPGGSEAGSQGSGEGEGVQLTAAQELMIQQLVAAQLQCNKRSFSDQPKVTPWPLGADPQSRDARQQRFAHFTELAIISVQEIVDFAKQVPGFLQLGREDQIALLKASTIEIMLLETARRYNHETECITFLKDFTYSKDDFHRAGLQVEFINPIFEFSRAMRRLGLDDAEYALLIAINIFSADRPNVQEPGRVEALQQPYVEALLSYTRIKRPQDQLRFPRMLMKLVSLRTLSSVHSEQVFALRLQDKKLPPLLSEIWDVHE

inhibition | IC50 [µM] | Structure (SMILES)
inactive |  | CCCC(c1ccc(N(C)S(=O)(=O)c2ccccc2)cc1)c1cccn1CCOC (centres undefined)
inactive |  | CCC(O)(c1ccc(N(C)S(=O)(=O)c2ccccc2)cc1)c1cccn1CCOC (centres undefined)
inactive |  | CCCCn1cccc1C(O)(c1ccc(N(C)S(=O)(=O)c2ccccc2)cc1)C(F)(F)F (centres undefined)
inactive |  | CCCn1cccc1C(O)(c1ccc(N(C)S(=O)(=O)c2ccccc2)cc1)C(F)(F)F (centres undefined)
inactive |  | CCn1cccc1C(O)(c1ccc(N(C)S(=O)(=O)c2ccccc2)cc1)C(F)(F)F (centres undefined)
inactive |  | CN(c1ccc(C(O)(c2ccc[nH]2)C(F)(F)F)cc1)S(=O)(=O)c1ccccc1 (centres undefined)
inactive |  | COCCn1cccc1C(=O)c1ccc(N(C)S(=O)(=O)c2ccccc2)cc1
inactive |  | CCC(c1ccc(N(C)S(=O)(=O)c2ccccc2)cc1)c1cccn1CCOC (centres undefined)
inactive |  | COCCn1cccc1C(O)c1ccc(N(C)S(=O)(=O)c2ccccc2)cc1 (centres undefined)
 | > 10 | COC(c1ccc(N(C)S(=O)(=O)c2ccccc2)cc1)(c1cccn1Cc1ccccc1)C(F)(F)F (racemic)
inactive |  | COCCn1cccc1Cc1ccc(N(C)S(=O)(=O)c2ccccc2)cc1
inactive |  | COCCn1cccc1C(CO)c1ccc(N(C)S(=O)(=O)c2ccccc2)cc1 (centres undefined)
inactive |  | COCCn1cccc1C(C)(O)c1ccc(N(C)S(=O)(=O)c2ccccc2)cc1 (centres undefined)
inactive |  | CCC(C)n1cccc1C(O)(c1ccc(N(C)S(=O)(=O)c2ccccc2)cc1)C(F)(F)F (centres undefined)
inactive |  | CCCCCCn1cccc1C(O)(c1ccc(N(C)S(=O)(=O)c2ccccc2)cc1)C(F)(F)F (centres undefined)
inactive |  | CCCC(O)(c1ccc(N(C)S(=O)(=O)c2ccccc2)cc1)c1cccn1CCOC (centres undefined)
inactive |  | CCOC(c1ccc(N(C)S(=O)(=O)c2ccccc2)cc1)c1cccn1CCOC (centres undefined)
inactive |  | COCCn1cccc1C(OC)c1ccc(N(C)S(=O)(=O)c2ccccc2)cc1 (centres undefined)
inactive |  | CN(c1ccc(C(O)(c2cccn2C)C(F)(F)F)cc1)S(=O)(=O)c1ccccc1 (centres undefined)
inactive |  | COCCn1cccc1C(C)c1ccc(N(C)S(=O)(=O)c2ccccc2)cc1 (centres undefined)
inactive |  | CN(c1ccc(C(O)(c2cccn2CCO)C(F)(F)F)cc1)S(=O)(=O)c1ccccc1 (centres undefined)
inactive |  | CN(c1ccc(C(O)(c2cccn2CCCO)C(F)(F)F)cc1)S(=O)(=O)c1ccccc1 (centres undefined)
